Reference: US5093496A, “Spiro-isoquinoline-pyrrolidines and analogs thereof useful as aldose reductase inhibitors” (American Home Products Corporation, priority 1991, dated 1992)
Like-named read-outs stand apart in the source and are kept apart here.

How the values were obtained:
[1] = biological target: T1, aldose reductase (Bos taurus, UniProt P16116); assay: in vitro aldose reductase inhibition (modified Hayman and Kinoshita procedure, enzyme from bovine lens); format: biochemical; settings: for inhibition at 0.04 µM: 4 × 10^-8 M; for inhibition at 1 µM / inhibition at 0.1 µM: read-out: % inhibition In Vitro
T1 construct: preparation of the enzyme from bovine lens; from tissue; host or cells: bovine lens
Method: Only two minor reagent changes were made: (a) the rinsing mixture was an aqueous 5% (w/v) trichloroacetic acid solution and (b) the stock solution was prepared by dissolving 25 mg of dulcitol in 100 ml of an aqueous trichloroacetic acid solution. [N.B.: For each experiment the average value found in the tissue from rats fed the glucose diet was subtracted from the individual values found in the corresponding tissue in galactose-fed rats to obtain the amount of polyol accumulated.] […] In the present case the procedure of Hayman and Kinoshita was modified in that the final chromatography step was omitted in the preparation of the enzyme from bovine lens.

[2] = system: Galactitol Accumulation; assay: lowering of galactitol (dulcitol) accumulation in tissues of galactosemic rats; format: in vivo, rat (Sprague-Dawley); settings: four days, vs untreated galactosemic rats; for % Lowering Galactitol Accumulation In Vivo, D: diaphragm
Excerpt: The aldose reductase inhibiting property of the compounds of this invention and the utilization of the compounds in preventing, diminishing and alleviating diabetic complications are demonstrable in experiments using galactosemic rats, see Dvornik et al., Science, 182, 1146 (1973). Such experiments are exemplified hereinbelow after the listing of the following general comments pertaining to these experiments:
(a) Four or more groups of six male rats, 50-70 g, Sprague-Dawley strain, were used. The first group, the control group, was fed a mixture of laboratory chow (rodent Laboratory Chow, Purina) and glucose at 20% (w/w %) concentration. An untreated galactosemic group was fed a similar diet in which galactose was substituted for glucose. The third group was fed a diet prepared by mixing a given amount of the test compound with the galactose containing diet. The concentration of galactose in the diet of the treated groups was the same as that for the untreated galactosemic group.
(b) After four days, the animals were killed by euthanization. Both the lens and sciatic nerve were removed, weighed and stored frozen for polyol determination.
(c) The polyol determination was performed by a modification of the procedure of M. Kraml and L. Cosyns, Clin. Biochem., 2, 373 (1969). Only two minor reagent changes were made: (a) the rinsing mixture was an aqueous 5% (w/v) trichloroacetic acid solution and (b) the stock solution was prepared by dissolving 25 mg of dulcitol in 100 ml of an aqueous trichloroacetic acid solution. [N.B.: For each experiment the average value found in the tissue from rats fed the glucose diet was subtracted from the individual values found in the corresponding tissue in galactose-fed rats to obtain the amount of polyol accumulated.] The aldose reductase inhibiting effects of the compounds of formula (I) were also tested by employing an in vitro testing procedure similar to that described by S. Hayman and J. H. Kinoshita, J. Biol. Chem., 240, 877 (1965). In the present case the procedure of Hayman and Kinoshita was modified in that the final chromatography step was omitted in the preparation of the enzyme from bovine lens.
The figures under L, N, and D represent the percentage decrease of dulcitol accumulation in the tissues of the lens, sciatic nerve, and diaphragm, respectively, for treated rats as compared to untreated rats.

Row | Structure (SMILES) | inhibition at 0.04 µM [1] [%] | inhibition at 1 µM ([1]; 10^-6 M) [%] | inhibition at 0.1 µM [1] [%] | % Lowering Galactitol Accumulation In Vivo, D ([2]; 1.0 mg/kg/day in diet) [%] | inhibition at 1 µM [1] [%] | % Lowering Galactitol Accumulation In Vivo, D ([2]; 4.6 mg/kg/day in diet) [%] | % Lowering Galactitol Accumulation In Vivo, D ([2]; 0.5 mg/kg/day in diet) [%] | % Lowering Galactitol Accumulation In Vivo, D ([2]; 1.1 mg/kg/day in diet) [%] | % Lowering Galactitol Accumulation In Vivo, L ([2]; lens, 1.1 mg/kg/day in diet) [%] | inhibition at 0.1 µM ([1]; 10^-7 M) [%]
1 | O=C1CC2(C(=O)N1)C(=O)N(Cc1nc3cc(C(F)(F)F)ccc3s1)C(=O)c1ccc(F)cc12 (centres unmarked) [R^1=F, R^3=CF3, 6-Fluoro-2-[[5-(trifluoromethyl)-2-benzothiazolyl]methyl]spiro-[isoquinoline-4(1H),3'-pyrrolidine]-1,2',3,5'(2H)-tetrone] | 92 | 95 | 94 | 85 | – | – | – | – | – | –
2 | O=C1CC2(C(=O)N1)C(=O)N(Cc1nc3ccccc3s1)C(=O)c1ccc(F)cc12 (centres unmarked) [R^1=F, R^3=H, 2-(2-Benzothiazolylmethyl)-6-fluorospiro[isoquinoline-4(1H),3'-pyrrolidine]-1,2',3,5'(2H)-tetrone] | 91 | – | 94 | – | 96 | 93 | – | – | – | –
3 | O=C1CC2(C(=O)N1)C(=O)N(Cc1nc3cc(C(F)(F)F)ccc3s1)C(=O)c1ccccc12 (centres unmarked) [R^1=H, R^3=CF3, 2-[[5-(Trifluoromethyl)-2-benzothiazolyl]methyl]spiro[isoquinoline-4-(1H),3'-pyrrolidine]-1,2',3,5'(2H)-tetrone] | 90 | 95 | 93 | – | – | – | 94 | 89 | 22 | –
4 | O=C1CC2(C(=O)N1)C(=O)N(Cc1nc3ccccc3s1)C(=O)c1ccccc12 (centres unmarked) [R^1=H, R^3=H, 2-(2-Benzothiazolylmethyl)spiro[isoquinoline-4(1H),3'-pyrrolidine)-1,2',3,5'(2H)-tetrone] | 81 | 97 | – | – | – | – | – | – | – | 92
